For 13 compounds, IC50 results are on record in patent publication US20240132489A1, “AROMATIC HETEROCYCLIC COMPOUND, PHARMACEUTICAL COMPOSITION, AND USE THEREOF” (GT APEIRON THERAPEUTICS LIMITED, priority 2020, published 2024).

Where a name gives a salt, the structure may show the parent alone. A value given as a limit tells only on which side of the number the result lay.

One assay concerns HCC70 cells. Nature of the assay: Cell bioactivity detection (CyQuant), HCC70. The assay is classed as cell-based. Particulars: human breast cancer cells HCC70, 72 hours. On the procedure:
(§1) Trypsinization was performed on A2780 and HCC70 cells. Cell suspensions were respectively transferred to 15 mL of centrifuge tubes and centrifuged at 800 rpm for 5 min. The supernatant was discarded. Resuspension in a fresh culture medium (RPMI 1640+10% FBS) was performed. After counting, the cells were inoculated at 2000/well in a 384-well plate (50 φL of 1640+10% FBS culture medium was added to the 2nd line and the 23rd line of the 384-well plate, and 50 μL of DPBS was added to surrounding wells). Incubation in an incubator (37° C., 5% CO2) was performed overnight.
(§2) The compound was added to the well plate the next day. The compound had the highest concentration of 10 μM and was diluted at the ratio of 1:4 to form 9 concentrations. The positive compound Paclitaxel had the highest concentration of 1 μM and was diluted at the ratio of 1:3 to form 9 concentrations. The DMSO content of each well was unified to 0.2%. A cell plate was centrifuged at 800 rpm for 30 seconds. Incubation for 72 hours in an incubator (37° C., 5% CO2) was performed. On the fourth day, a Cyquant reagent (3×) was prepared according to kit instructions. Each 384-well plate was prepared in the following proportions: DPBS: 11.568 mL, CyQuant® Direct nucleic acid stain: 72 μL, CyQuant® Direct background suppressor: 360 ILL. The plates were uniformly mixed and placed for standby application at room temperature. The cell plate was taken out and placed at room temperature to be balanced for 30 min. 25 μL of Cyquant reagent (3×) was dispensed to the cells in each well of the 384-well plates by using a Multi-drop dispenser. Incubation at 37° C. for 60 or more minutes was performed. The plates were read by Acumen (Acumen was configured to have a 488 nm excitation wavelength). IC50 results were analyzed by XLFIT5 of the IDBS company.

Another assay has as its target CDK9/CyclinT1 (Homo sapiens (Human), UniProt P50750). The assay can be described thus: In vitro enzymatic inhibitory activity test, CDK9. Particulars: Caliper mobility shift, 180 min at 27° C. In kind it is biochemical. On the procedure:
(§3) CDK7/CyclinH was diluted in a test buffer solution (20 mM MES PH6.75, 0.01% Tween20, 50 ug/mL BSA, 6 mM MgCl2) to obtain a corresponding enzyme solution with a 2.4× concentration. CDK2/CyclinE1 was diluted in a test buffer solution (20 mM MES PH6.75, 0.01% Tween20, 50 ug/mL BSA, 6 mM MgCl2) to obtain a corresponding enzyme solution with a 2.4× concentration. CDK9/CyclinT1 was diluted in a test buffer solution (20 mM MES PH6.75, 0.01% Tween20, 50 ug/mL BSA, 10 mM MgCl2) to obtain a corresponding enzyme solution with a 2.4× concentration. CDK12/CyclinK was diluted in a test buffer solution (80 mM MES PH6.5, 0.01% Tween20, 50 ug/mL BSA, 10 mM MgCl2) to obtain a corresponding enzyme solution with a 2.4× concentration. The compounds were dissolved in dimethyl sulfoxide (DMSO) at a concentration of 10 mM. […] 2 ul of a test compound solution was mixed with 5 ul of enzyme solution. After incubating for 10 min, 5 ul of the mixed solution of the polypeptide substrate and ATP was added. After incubating at 27° C. for 180 min, 4 uL of EDTA with a 120 mM concentration was added to each sample to stop the reaction. […] A CDK9/cyclin TI complex (8 nM) and a “5-FAM-CDK9tide” peptide substrate (2 μM, synthetic fluorophore labeled peptide having the following sequence: 5-FAM-GSRTPMY-NH2, where 5-FAM was as defined above, and NH2 represented C-terminal amide) were used for testing the CDK9 inhibition. […] A CDK2/cyclin E1 complex (0.5 nM) and the “5-FAM-CDK7tide” (2 μM) as defined above were used for testing the CDK2 inhibition.
(§4) Electrophoretic separation was performed on Caliper EZ Reader II by means of a fluorogenic substrate and a phosphorylated product to analyze the reaction mixture. Data were calculated by using GraphPad Prism version 6.0. IC50 values were adjusted by means of a nonlinear regression model using a dose-response curve.

The target of assay [1] is CDK7/cyclin H/MAT1 complex (Homo sapiens (Human), UniProt P50613). The assay can be described thus: In vitro enzymatic inhibitory activity test, CDK7. The assay is classed as biochemical. Particulars: Caliper mobility shift, 180 min at 27° C. On the procedure: as §3, §4
Sequence of CDK7/cyclin H/MAT1 complex (P50613 whole entry, species assumed): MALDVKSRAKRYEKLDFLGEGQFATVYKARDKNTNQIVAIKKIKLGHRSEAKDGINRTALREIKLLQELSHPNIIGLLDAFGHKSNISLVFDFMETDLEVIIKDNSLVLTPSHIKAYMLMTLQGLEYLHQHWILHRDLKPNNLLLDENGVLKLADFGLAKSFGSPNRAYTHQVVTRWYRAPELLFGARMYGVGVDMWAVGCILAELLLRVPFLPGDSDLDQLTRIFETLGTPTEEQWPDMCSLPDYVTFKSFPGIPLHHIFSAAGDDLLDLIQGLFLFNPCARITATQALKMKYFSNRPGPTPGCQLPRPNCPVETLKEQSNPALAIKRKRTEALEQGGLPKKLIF
Sequence of CDK7/cyclin H/MAT1 complex (P51946 whole entry partner, species assumed): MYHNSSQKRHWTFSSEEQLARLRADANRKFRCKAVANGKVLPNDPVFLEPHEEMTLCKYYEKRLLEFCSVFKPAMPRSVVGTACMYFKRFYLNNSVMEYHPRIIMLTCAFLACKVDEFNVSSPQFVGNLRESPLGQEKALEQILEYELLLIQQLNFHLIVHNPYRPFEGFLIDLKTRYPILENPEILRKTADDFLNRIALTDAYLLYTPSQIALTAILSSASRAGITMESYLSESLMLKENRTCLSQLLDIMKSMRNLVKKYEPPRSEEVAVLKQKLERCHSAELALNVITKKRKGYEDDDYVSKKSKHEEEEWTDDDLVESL
Sequence of CDK7/cyclin H/MAT1 complex (P51948 whole entry partner, species assumed): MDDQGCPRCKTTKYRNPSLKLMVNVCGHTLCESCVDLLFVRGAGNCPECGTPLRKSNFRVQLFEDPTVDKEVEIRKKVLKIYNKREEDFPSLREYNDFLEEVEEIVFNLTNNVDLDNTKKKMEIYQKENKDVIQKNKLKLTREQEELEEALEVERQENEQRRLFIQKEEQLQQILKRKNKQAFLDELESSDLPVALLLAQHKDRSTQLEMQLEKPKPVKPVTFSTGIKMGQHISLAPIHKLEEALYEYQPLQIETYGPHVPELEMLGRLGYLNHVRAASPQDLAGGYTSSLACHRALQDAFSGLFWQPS
In the next assay the target is CDK2/cyclin E1 complex (Homo sapiens (Human), UniProt P24941). The assay can be described thus: In vitro enzymatic inhibitory activity test, CDK2. Particulars: Caliper mobility shift, 180 min at 27° C. The assay is classed as biochemical. On the procedure: CDK7/CyclinH was diluted in a test buffer solution (20 mM MES PH6.75, 0.01% Tween20, 50 ug/mL BSA, 6 mM MgCl2) to obtain a corresponding enzyme solution with a 2.4× concentration. CDK2/CyclinE1 was diluted in a test buffer solution (20 mM MES PH6.75, 0.01% Tween20, 50 ug/mL BSA, 6 mM MgCl2) to obtain a corresponding enzyme solution with a 2.4× concentration. CDK9/CyclinT1 was diluted in a test buffer solution (20 mM MES PH6.75, 0.01% Tween20, 50 ug/mL BSA, 10 mM MgCl2) to obtain a corresponding enzyme solution with a 2.4× concentration. CDK12/CyclinK was diluted in a test buffer solution (80 mM MES PH6.5, 0.01% Tween20, 50 ug/mL BSA, 10 mM MgCl2) to obtain a corresponding enzyme solution with a 2.4× concentration. […] 2 ul of a test compound solution was mixed with 5 ul of enzyme solution. After incubating for 10 min, 5 ul of the mixed solution of the polypeptide substrate and ATP was added. After incubating at 27° C. for 180 min, 4 uL of EDTA with a 120 mM concentration was added to each sample to stop the reaction. […] A CDK9/cyclin TI complex (8 nM) and a “5-FAM-CDK9tide” peptide substrate (2 μM, synthetic fluorophore labeled peptide having the following sequence: 5-FAM-GSRTPMY-NH2, where 5-FAM was as defined above, and NH2 represented C-terminal amide) were used for testing the CDK9 inhibition. […] A CDK2/cyclin E1 complex (0.5 nM) and the “5-FAM-CDK7tide” (2 μM) as defined above were used for testing the CDK2 inhibition.
as §4

A further assay concerns A2780 cells. Nature of the assay: Cell bioactivity detection (CyQuant), A2780. The assay is classed as cell-based, human. Particulars: ovarian carcinoma cells A2780, 72 hours. On the procedure: as §1, §2
The target in assay [2] is CDK12(aa686-1082)/cyclin K complex (Homo sapiens (Human), UniProt Q9NYV4). Nature of the assay: In vitro enzymatic inhibitory activity test, CDK12. The assay is classed as biochemical. Particulars: Caliper mobility shift, 180 min at 27° C. On the procedure:
as §3, §4

Sequence of CDK12(aa686-1082)/cyclin K complex (Q9NYV4 686-1082, species assumed): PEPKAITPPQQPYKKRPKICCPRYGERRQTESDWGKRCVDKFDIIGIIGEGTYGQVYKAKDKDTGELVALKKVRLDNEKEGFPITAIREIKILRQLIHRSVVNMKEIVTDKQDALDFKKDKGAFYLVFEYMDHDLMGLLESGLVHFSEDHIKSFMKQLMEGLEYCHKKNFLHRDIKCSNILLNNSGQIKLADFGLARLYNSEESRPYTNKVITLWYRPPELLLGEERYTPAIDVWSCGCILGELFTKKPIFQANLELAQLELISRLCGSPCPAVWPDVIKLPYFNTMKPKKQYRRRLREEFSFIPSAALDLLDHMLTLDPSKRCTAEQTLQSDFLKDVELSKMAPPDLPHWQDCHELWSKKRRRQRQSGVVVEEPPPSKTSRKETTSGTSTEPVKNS
Sequence of CDK12(aa686-1082)/cyclin K complex (O75909 whole entry partner, species assumed, the tested form may be a part): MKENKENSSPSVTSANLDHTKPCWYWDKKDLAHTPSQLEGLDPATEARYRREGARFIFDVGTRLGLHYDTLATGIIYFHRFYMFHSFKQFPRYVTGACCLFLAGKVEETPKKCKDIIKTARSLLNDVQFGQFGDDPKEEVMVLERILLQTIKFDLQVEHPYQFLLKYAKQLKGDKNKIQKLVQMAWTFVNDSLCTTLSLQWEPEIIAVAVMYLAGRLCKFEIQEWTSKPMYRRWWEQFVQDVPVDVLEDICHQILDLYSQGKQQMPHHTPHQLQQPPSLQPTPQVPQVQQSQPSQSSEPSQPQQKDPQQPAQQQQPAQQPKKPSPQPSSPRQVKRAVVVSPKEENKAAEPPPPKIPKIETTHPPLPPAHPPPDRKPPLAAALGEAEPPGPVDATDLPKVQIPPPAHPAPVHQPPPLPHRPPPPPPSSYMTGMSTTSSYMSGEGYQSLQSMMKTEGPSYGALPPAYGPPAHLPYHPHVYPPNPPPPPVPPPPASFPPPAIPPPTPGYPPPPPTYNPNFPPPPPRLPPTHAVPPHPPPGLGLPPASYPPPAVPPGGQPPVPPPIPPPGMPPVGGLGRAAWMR
Sequence of CDK9/CyclinT1 (P50750 whole entry, species assumed): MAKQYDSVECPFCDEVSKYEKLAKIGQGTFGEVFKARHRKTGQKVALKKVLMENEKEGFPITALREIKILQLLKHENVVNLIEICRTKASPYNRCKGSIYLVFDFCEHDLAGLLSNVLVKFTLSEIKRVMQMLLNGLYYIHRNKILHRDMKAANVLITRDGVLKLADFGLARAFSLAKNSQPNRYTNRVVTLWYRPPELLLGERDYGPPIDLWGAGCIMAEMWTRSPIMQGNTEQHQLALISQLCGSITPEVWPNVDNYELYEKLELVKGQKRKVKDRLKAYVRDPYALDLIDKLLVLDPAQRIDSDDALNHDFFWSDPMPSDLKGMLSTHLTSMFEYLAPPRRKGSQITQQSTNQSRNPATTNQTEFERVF
Sequence of CDK9/CyclinT1 (O60563 whole entry partner, species assumed): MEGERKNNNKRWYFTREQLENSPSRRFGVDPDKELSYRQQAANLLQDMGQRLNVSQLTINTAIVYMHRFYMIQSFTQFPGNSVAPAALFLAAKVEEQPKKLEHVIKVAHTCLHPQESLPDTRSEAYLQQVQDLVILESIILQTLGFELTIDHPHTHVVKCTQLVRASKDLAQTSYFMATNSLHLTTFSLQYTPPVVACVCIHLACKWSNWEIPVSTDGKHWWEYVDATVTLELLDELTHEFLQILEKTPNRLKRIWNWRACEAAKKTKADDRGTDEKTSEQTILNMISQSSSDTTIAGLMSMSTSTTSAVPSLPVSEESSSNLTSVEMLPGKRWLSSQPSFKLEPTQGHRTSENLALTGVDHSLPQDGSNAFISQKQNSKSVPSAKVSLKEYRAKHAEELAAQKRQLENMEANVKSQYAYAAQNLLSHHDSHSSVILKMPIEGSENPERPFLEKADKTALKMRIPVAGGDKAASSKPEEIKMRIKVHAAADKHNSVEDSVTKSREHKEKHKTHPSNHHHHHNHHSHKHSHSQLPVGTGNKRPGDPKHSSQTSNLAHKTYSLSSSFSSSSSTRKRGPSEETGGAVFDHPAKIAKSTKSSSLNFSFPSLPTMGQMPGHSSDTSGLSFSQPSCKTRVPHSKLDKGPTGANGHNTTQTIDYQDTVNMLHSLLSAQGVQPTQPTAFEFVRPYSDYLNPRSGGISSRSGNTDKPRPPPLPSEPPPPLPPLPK

As usually defined, the IC50 is the concentration at which inhibition is half-maximal. In the case of `FC(F)(F)c1cnc(N[C@H]2CCCNC2)nc1-c1c[nH]c2nc(C3CCOC3)ccc12` (single isomer, unassigned) [Compound 107], the IC50 in the assay on HCC70 cells (Homo sapiens, HCC70, 72 h) was 6.77 nM; at CDK9/CyclinT1 it was 1440 nM; in assay [1] it was 6.4 nM; at CDK2/cyclin E1 complex it was 1510 nM; in the assay on A2780 cells (Homo sapiens, A2780, 72 h) it was 6.27 nM; in assay [2] it was 567 nM.

Regarding `FC(F)(F)c1cnc(N[C@H]2CCCNC2)nc1-c1c[nH]c2nc(C3CCOC3)ccc12` (single isomer, unassigned) [Compound 108], the 50% inhibitory concentration (IC50) with HCC70 cells worked out at 3.8 nM; on CDK9/CyclinT1 it was 1410 nM; in assay [1], 4.36 nM; at CDK2/cyclin E1 complex, 947 nM; in the assay with A2780 cells, 3.9 nM; in assay [2], 512 nM.

As for `FC(F)(F)c1cnc(N[C@H]2CCCNC2)nc1-c1c[nH]c2nc(N3CCOCC3)ccc12` [Compound 1, (S)-4-(6-morpholinyl-1H-pyrrolo[2,3-b]pyridin-3-yl)-N-(piperidin-3-yl)-5-(trifluoromethyl)pyrimidine-2-amine], the IC50 came to 14 nM in the assay on HCC70 cells (Homo sapiens, HCC70, 72 h); 1180 nM at CDK9/CyclinT1; 13.4 nM in assay [1]; 3020 nM on CDK2/cyclin E1 complex; 14 nM in the assay with A2780 cells (Homo sapiens, A2780, 72 h); 1460 nM in assay [2].

Consider `FC(F)(F)c1cnc(N[C@H]2CCCNC2)nc1-c1c[nH]c2nc(N3C[C@H]4C[C@@H]3CO4)ccc12` [Compound 2, 4-(6-((1R,4R)-2-oxa-5-azabicyclo[2.2.1]heptan-5-yl)-1H-pyrrolo[2,3-b]pyridin-3-yl)-N—((S)-piperidin-3-yl)-5-(trifluoromethyl)pyrimidine-2-amine], for which the IC50 was 15 nM in the assay with HCC70 cells (Homo sapiens, HCC70, 72 h); 1040 nM on CDK9/CyclinT1; 10.4 nM in assay [1]; 4380 nM at CDK2/cyclin E1 complex; 16 nM with A2780 cells (Homo sapiens, A2780, 72 h); 1840 nM in assay [2].

Turning to `OC1CCN(c2ccc3c(-c4nc(N[C@H]5CCCNC5)ncc4C(F)(F)F)c[nH]c3n2)CC1` [Compound 3, (S)-1-(3-(2-(piperidin-3-ylamino)-5-(trifluoromethyl)pyrimidin-4-yl)-1H-pyrrolo[2,3-b]pyridin-6-yl)piperidin-4-ol], the half-inhibitory concentration (IC50) in the assay with HCC70 cells (Homo sapiens, HCC70, 72 h) was found to be 7.9 nM; on CDK9/CyclinT1 it was 722 nM; in assay [1], 17.4 nM; at CDK2/cyclin E1 complex, 2680 nM; in the assay on A2780 cells (Homo sapiens, A2780, 72 h) it was 12 nM; in assay [2], 679 nM.

As for `OCC1CCN(c2ccc3c(-c4nc(N[C@H]5CCCNC5)ncc4C(F)(F)F)c[nH]c3n2)CC1` [Compound 4], the half-inhibitory concentration (IC50) stood at 6.1 nM with HCC70 cells (Homo sapiens, HCC70, 72 h); 682 nM on CDK9/CyclinT1; 17.4 nM in assay [1]; 1480 nM at CDK2/cyclin E1 complex; 8 nM in the assay on A2780 cells (Homo sapiens, A2780, 72 h); 733 nM in assay [2].

On to `FC(F)(F)c1cnc(N[C@H]2CCCNC2)nc1-c1c[nH]c2nc(N3CC4COCC4C3)ccc12` (stereo partly drawn) [Compound 5, N—((S)-piperidin-3-yl)-4-(6-(tetrahydro-1H-furan[3,4-c]pyrrol-5(3H)-yl)-1H-pyrrolo[2,3-b]pyridin-3-yl)-5-(trifluoromethyl)pyrimidine-2-amine], for which the IC50 with HCC70 cells (Homo sapiens, HCC70, 72 h) came out at 19 nM; at CDK9/CyclinT1, 907 nM; in assay [1], 12.1 nM; at CDK2/cyclin E1 complex it was 2250 nM; in the assay on A2780 cells (Homo sapiens, A2780, 72 h), 17 nM; in assay [2], 1020 nM.

As to `CC1(O)CCN(c2ccc3c(-c4nc(N[C@H]5CCCNC5)ncc4C(F)(F)F)c[nH]c3n2)C1` (stereo partly drawn) [Compound 6, 3-methyl-1-(3-(2-(((S)-piperidin-3-yl)amino)-5-(trifluoromethyl)pyrimidin-4-yl)-1H-pyrrolo[2,3-b]pyridin-6-yl)pyrrolidin-3-ol], the IC50 in the assay with HCC70 cells (Homo sapiens, HCC70, 72 h) worked out at 6.7 nM; on CDK9/CyclinT1, 1040 nM; in assay [1], 10.4 nM; at CDK2/cyclin E1 complex it was 4380 nM; in the assay with A2780 cells (Homo sapiens, A2780, 72 h), 22 nM; in assay [2], 1840 nM.

Regarding `FC(F)(F)c1cnc(N[C@H]2CCCNC2)nc1-c1c[nH]c2nc(N3CCCC4(CCOC4)C3)ccc12` (stereo partly drawn) [Compound 7, 4-(6-(2-oxa-7-azaspiro[4.5]decan-7-yl)-1H-pyrrolo[2,3-b]pyridin-3-yl)-N—((S)-piperidin-3-yl)-5-(trifluoromethyl)pyrimidine-2-amine], the IC50 in the assay with HCC70 cells (Homo sapiens, HCC70, 72 h) stood at 28 nM; on CDK9/CyclinT1 it was 3250 nM; in assay [1] it was 24.3 nM; at CDK2/cyclin E1 complex, 4500 nM; in the assay with A2780 cells (Homo sapiens, A2780, 72 h), 21.9 nM; in assay [2] it was 2060 nM.

With `FC(F)(F)c1cnc(N[C@@H]2[C@@H]3CC[C@H]2NC3)nc1-c1c[nH]c2nc(N3CCOCC3)ccc12` [Compound 43, (1R,4R,7R)—N-(4-(6-morpholinyl-1H-pyrrol[2,3-b]pyridin-3-yl)-5-(trifluoromethyl)pyrimidin-2-yl)-2-azabicyclo[2.2.1]heptan-7-amine formate], the IC50 in the assay with HCC70 cells (Homo sapiens, HCC70, 72 h) was 6070 nM; at CDK9/CyclinT1 it was more than 10000 nM; in assay [1] it was 82.9 nM; at CDK2/cyclin E1 complex, more than 10000 nM; in assay [2], more than 10000 nM.

For `C[C@H]1CC[C@H](Nc2ncc(C(F)(F)F)c(-c3c[nH]c4nc(N5CCOC[C@@H]5C)ccc34)n2)CN1` [Compound 69, 4-(6-((S)-3-methylmorpholine)-1H-pyrrol[2,3-b]pyridin-3-yl)-N-((3S,6S)-6-methylpiperidin-3-yl)-5-(trifluoromethyl)pyrimidine-2-amine], the IC50 was 642 nM in the assay with HCC70 cells; more than 50000 nM at CDK9/CyclinT1; 28.4 nM in assay [1]; 47100 nM on CDK2/cyclin E1 complex; 49100 nM in assay [2].

In the case of `FC(F)(F)c1cnc(N[C@@H]2CCCNC2)nc1-c1c[nH]c2nc(C3CCCCO3)ccc12` (stereo partly drawn) [Compound 112], in assay [1], the IC50 came to 5.82 nM.

Consider `FC(F)(F)c1cnc(N[C@H]2CCCNC2)nc1-c1c[nH]c2nc(C3CCCCO3)ccc12` (stereo partly drawn) [Compound 113], for which, in assay [1], the IC50 amounted to 4.76 nM.
